Test results: patent US20170050957A1, “4-AMINO-6-(HETEROCYCLIC)PICOLINATES AND 6-AMINO-2-(HETEROCYCLIC)PYRIMIDINE-4-CARBOXYLATES AND THEIR USE AS HERBICIDES” (Dow AgroSciences LLC, priority 2013, published 2017)
Read-outs that look alike come from different tables or passages of the source.

How the values were obtained:
[1] = test system: Key Grass and Sedge Weeds as well as Grass Crops; test: Post-emergent Test II herbicidal activity (Table 16); type: in vivo; conditions: post-emergence, 336 h; for pest or weed control at 35 g/ha: 35 g ai/ha; for pest or weed control at 70 g/ha: 70 g ai/ha; for pest or weed control at 140 g/ha: 140 g ai/ha
Method in brief: (§1)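 Herbicidal effect scored as percent visual injury, 14 d after post-emergent application. Spray solutions contained acetone, DMSO, isopropyl alcohol, crop oil concentrate and surfactant, applied at 187 L/ha to young plants (1-2 true leaves).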

[2] = test system: Key Broadleaf Weed and Crop Species; test: Post-emergent Test II herbicidal activity (Table 15); type: in vivo; conditions: post-emergence, 336 h, 14 d; for pest or weed control at 35 g/ha: 35 g ai/ha; for pest or weed control at 70 g/ha: 70 g ai/ha; for pest or weed control at 140 g/ha: 140 g ai/ha
Method in brief: as §1

[3] = Cyperus esculentus, yellow nutsedge (Cyperus esculentus), 14 days after application, read-out: Visual Growth Reduction (%) 14 Days After Application CYPES
[4] = Echinochloa crus-galli, barnyardgrass (Echinochloa crus-galli), 14 days after application, read-out: Visual Growth Reduction (%) 14 Days After Application ECHCG
[5] = Oryza sativa, rice (Oryza sativa), 14 days after application, read-out: Visual Growth Reduction (%) 14 Days After Application ORYSA
[6] = Setaria faberi, giant foxtail (Setaria faberi), 14 days after application, read-out: Visual Growth Reduction (%) 14 Days After Application SETFA
[7] = Triticum aestivum, wheat, spring (Triticum aestivum), 14 days after application, read-out: Visual Growth Reduction (%) 14 Days After Application TRZAS
[8] = Zea mays, maize, corn (Zea mays), 14 days after application, read-out: Visual Growth Reduction (%) 14 Days After Application ZEAMX
[9] = Abutilon theophrasti, velvetleaf (Abutilon theophrasti), read-out: Visual Growth Reduction (%) 14 Days After Application, ABUTH
[10] = Amaranthus retroflexus, redroot pigweed (Amaranthus retroflexus), read-out: Visual Growth Reduction (%) 14 Days After Application, AMARE
[11] = Brassica napus, oilseed rape, canola (Brassica napus), read-out: Visual Growth Reduction (%) 14 Days After Application, BRSNN
[12] = Chenopodium album, lambsquarters (Chenopodium album), read-out: Visual Growth Reduction (%) 14 Days After Application, CHEAL
[13] = Euphorbia heterophylla, wild poinsettia (Euphorbia heterophylla), read-out: Visual Growth Reduction (%) 14 Days After Application, EPHHL
[14] = Helianthus annuus, sunflower (Helianthus annuus), read-out: Visual Growth Reduction (%) 14 Days After Application, HELAN
[15] = Cyperus esculentus, yellow nutsedge (Cyperus esculentus), 14 d, read-out: Visual Growth Reduction (%) 14 Days After Application, CYPES
[16] = Echinochloa crus-galli, barnyardgrass (Echinochloa crus-galli), 14 d, read-out: Visual Growth Reduction (%) 14 Days After Application, ECHCG
[17] = Oryza sativa, rice (Oryza sativa), 14 d, read-out: Visual Growth Reduction (%) 14 Days After Application, ORYSA
[18] = Setaria faberi, giant foxtail (Setaria faberi), 14 d, read-out: Visual Growth Reduction (%) 14 Days After Application, SETFA
[19] = Triticum aestivum, wheat, spring (Triticum aestivum), 14 d, read-out: Visual Growth Reduction (%) 14 Days After Application, TRZAS
[20] = Zea mays, maize, corn (Zea mays), 14 d, read-out: Visual Growth Reduction (%) 14 Days After Application, ZEAMX

Structure (SMILES) | melting point | pest or weed control at 35 g/ha [2, 9] | pest or weed control at 70 g/ha [2, 9] | pest or weed control at 140 g/ha [2, 9] | pest or weed control at 35 g/ha [2, 10] | pest or weed control at 70 g/ha [2, 10] | pest or weed control at 140 g/ha [2, 10] | pest or weed control at 35 g/ha [2, 11] | pest or weed control at 70 g/ha [2, 11] | pest or weed control at 140 g/ha [2, 11] | pest or weed control at 35 g/ha [2, 12] | pest or weed control at 70 g/ha [2, 12] | pest or weed control at 140 g/ha [2, 12] | pest or weed control at 35 g/ha [2, 13] | pest or weed control at 70 g/ha [2, 13] | pest or weed control at 140 g/ha [2, 13] | pest or weed control at 35 g/ha [2, 14] | pest or weed control at 70 g/ha [2, 14] | pest or weed control at 140 g/ha [2, 14] | also measured
COC(=O)c1nc(-c2cc3sccc3cc2F)cc(N)c1Cl [Compound 3.17] | 70 °C | 0 to 29% | 45 to 59% | 60 to 74% | 75 to 84% | 95 to 100% | 95 to 100% | 0 to 29% | 0 to 29% | 60 to 74% | 85 to 94% | 95 to 100% | 95 to 100% | 45 to 59% | 60 to 74% | 75 to 84% | 0 to 29% | 0 to 29% | 30 to 44% | pest or weed control at 35 g/ha [1, 3]: 0 to 29%; pest or weed control at 70 g/ha [1, 3]: 0 to 29%; pest or weed control at 140 g/ha [1, 3]: 0 to 29%; pest or weed control at 35 g/ha [1, 4]: 45 to 59%; pest or weed control at 70 g/ha [1, 4]: 60 to 74%; pest or weed control at 140 g/ha [1, 4]: 95 to 100%; pest or weed control at 35 g/ha [1, 5]: 0 to 29%; pest or weed control at 70 g/ha [1, 5]: 0 to 29%; pest or weed control at 140 g/ha [1, 5]: 0 to 29%; pest or weed control at 35 g/ha [1, 6]: 0 to 29%; pest or weed control at 70 g/ha [1, 6]: 0 to 29%; pest or weed control at 140 g/ha [1, 6]: 30 to 44%; pest or weed control at 35 g/ha [1, 7]: 0 to 29%; pest or weed control at 70 g/ha [1, 7]: 0 to 29%; pest or weed control at 140 g/ha [1, 7]: 0 to 29%; pest or weed control at 35 g/ha [1, 8]: 30 to 44%; pest or weed control at 70 g/ha [1, 8]: 60 to 74%; pest or weed control at 140 g/ha [1, 8]: 75 to 84%
COC(=O)c1nc(-c2ccc(Cl)c3ccoc23)nc(N)c1OC [Compound 2.26] | 178 °C | 45 to 59% | 60 to 74% | 60 to 74% | 95 to 100% | 95 to 100% | 95 to 100% | 45 to 59% | 60 to 74% | 60 to 74% | 95 to 100% | 95 to 100% | 95 to 100% | 45 to 59% | 60 to 74% | 75 to 84% | 75 to 84% | 95 to 100% | 95 to 100% | pest or weed control at 35 g/ha [1, 15]: 0 to 29%; pest or weed control at 70 g/ha [1, 15]: 0 to 29%; pest or weed control at 140 g/ha [1, 15]: 0 to 29%; pest or weed control at 35 g/ha [1, 16]: 0 to 29%; pest or weed control at 70 g/ha [1, 16]: 0 to 29%; pest or weed control at 140 g/ha [1, 16]: 0 to 29%; pest or weed control at 35 g/ha [1, 17]: 0 to 29%; pest or weed control at 70 g/ha [1, 17]: 0 to 29%; pest or weed control at 140 g/ha [1, 17]: 0 to 29%; pest or weed control at 35 g/ha [1, 18]: 0 to 29%; pest or weed control at 70 g/ha [1, 18]: 0 to 29%; pest or weed control at 140 g/ha [1, 18]: 0 to 29%; pest or weed control at 35 g/ha [1, 19]: 0 to 29%; pest or weed control at 70 g/ha [1, 19]: 0 to 29%; pest or weed control at 140 g/ha [1, 19]: 0 to 29%; pest or weed control at 35 g/ha [1, 20]: 0 to 29%; pest or weed control at 70 g/ha [1, 20]: 0 to 29%; pest or weed control at 140 g/ha [1, 20]: 0 to 29%
